Values of other authors in PubChem BioAssay AID1259409 (Chemical Carcinogenesis Research Information System (CCRIS), 2018).

Test system: rodent chemically induced tumor inhibition, incidence and multiplicity
Test: CCRIS tumor inhibitor studies

Structure (SMILES): N#CSCc1ccccc1
- tumour outcome (control, treated, inhibition, significance) (Carcinogen: 7,12-DIMETHYLBENZ[A]ANTHRACENE, 57-97-6, Dose [Inhibitor]: 0, 25 PPM IN DIET BEGINNING 2 WK PRIOR TO CARCINOGEN DOSE AND CONTINUING FOR 1 WK POST CARCINOGEN DOSE (STUDY DURATION:, Route [Inhibitor]: ORAL, Species: RAT, Strain/Sex: SPRAGUE-DAWLEY/FEMALE, Target Tissue: Type of Lesion: MAMMARY GLAND: TUMOR, Dose [Carcinogen]: 10 MG IN 1 ML OLIVE OIL ONCE AT 7 WK OF AGE, Promoter: NONE USED): 19/21 (91%), 19/21 (91%), 0%
- tumour outcome (control, treated, inhibition, significance) (Carcinogen: 7,12-DIMETHYLBENZ[A]ANTHRACENE, 57-97-6, Dose [Inhibitor]: 0.03 NMOL/G DIET DAILY FOR 17 WK STARTING 1 WK PRIOR TO CARCINOGEN TREATMENT AND CONTINUING THROUGH THE END OF THE STUDY, Route [Inhibitor]: ORAL, Species: RAT, Strain/Sex: SPRAGUE-DAWLEY/FEMALE, Target Tissue: Type of Lesion: MAMMARY GLAND: TUMOR, Dose [Carcinogen]: 12 MG IN 1 ML OLIVE OIL ONCE, Promoter: NONE USED): 79%, 8%, 90%, p<0.001
- tumour outcome (control, treated, inhibition, significance) (Carcinogen: 7,12-DIMETHYLBENZ[A]ANTHRACENE, 57-97-6, Dose [Inhibitor]: 5.0 MG/G DIET AT AGE 9 WK SIMULTANEOUSLY WITH CARCINOGEN, 3/WK FOR 4 WK (STUDY DURATION: 20 WK), Route [Inhibitor]: ORAL, Species: MOUSE, Strain/Sex: ICR/FEMALE, Target Tissue: Type of Lesion: FORESTOMACH: TUMOR, Dose [Carcinogen]: 0.05 MG/G DIET AT AGE 9 WK, 3/WK FOR 4 WK, Promoter: NONE USED): 87%, 80%, 8%, not significant
- tumour outcome (control, treated, inhibition, significance) (Carcinogen: 7,12-DIMETHYLBENZ[A]ANTHRACENE, 57-97-6, Dose [Inhibitor]: 50 MG ONCE 2 HR BEFORE DMBA TREATMENT (STUDY DURATION: 18 WK), Route [Inhibitor]: INTRAGASTRIC, Species: RAT, Strain/Sex: SPRAGUE-DAWLEY/FEMALE, Target Tissue: Type of Lesion: MAMMARY GLAND: TUMOR, Dose [Carcinogen]: 12 MG IN 1 ML OLIVE OIL AT AGE 7 WK 2 HR AFTER AGENT TREATMENT, Promoter: NONE USED): 77%, 55%, 28%, not significant
- tumour outcome (control, treated, inhibition, significance) (Carcinogen: 7,12-DIMETHYLBENZ[A]ANTHRACENE, 57-97-6, Dose [Inhibitor]: 50 MG ONCE 4 HR BEFORE DMBA TREATMENT (STUDY DURATION: 18 WK), Route [Inhibitor]: INTRAGASTRIC, Species: RAT, Strain/Sex: SPRAGUE-DAWLEY/FEMALE, Target Tissue: Type of Lesion: MAMMARY GLAND: TUMOR, Dose [Carcinogen]: 12 MG IN 1 ML OLIVE OIL AT AGE 7 WK 4 HR AFTER AGENT TREATMENT, Promoter: NONE USED): 100%, 36%, 64%, p<0.001
- tumour outcome (control, treated, inhibition, significance) (Carcinogen: BENZO[A]PYRENE, 50-32-8, Dose [Inhibitor]: 0, 0.045 UMOL/G DIET BEGINNING 1 WK PRIOR TO CARCINOGEN TREATMENT AND CONTINUING FOR 1 WK POST CARCINOGEN TREATMENT FOLL, Route [Inhibitor]: ORAL, Species: MOUSE, Strain/Sex: CD-1/FEMALE, Target Tissue: Type of Lesion: FORESTOMACH: PAPILLOMA, Dose [Carcinogen]: 1 MG IN 0.2 ML CORN OIL 2/WK FOR 4 WK, Promoter: NONE USED): 85%, 84%, 1%, not significant
- tumour outcome (control, treated, inhibition, significance) (Carcinogen: DIETHYLNITROSAMINE, 55-18-5, Dose [Inhibitor]: 0, 100 PPM IN DIET FOR DURATION OF STUDY BEGINNING 1 WK PRIOR TO CARCINOGEN DOSE (STUDY DURATION: 53 WK), Route [Inhibitor]: ORAL, Species: RAT, Strain/Sex: ACI/MALE, Target Tissue: Type of Lesion: LIVER: HEPATOCELLULAR ADENOMA, Dose [Carcinogen]: 200 MG/KG BW ONCE, Promoter: NONE USED): 10/18 (55%), 6/16 (38%), 31%, not significant
- tumour outcome (control, treated, inhibition, significance) (Carcinogen: DIETHYLNITROSAMINE, 55-18-5, Dose [Inhibitor]: 0, 100 PPM IN DIET FOR DURATION OF STUDY BEGINNING 1 WK PRIOR TO CARCINOGEN DOSE (STUDY DURATION: 53 WK), Route [Inhibitor]: ORAL, Species: RAT, Strain/Sex: ACI/MALE, Target Tissue: Type of Lesion: LIVER: HEPATOCELLULAR CARCINOMA, Dose [Carcinogen]: 200 MG/KG BW ONCE, Promoter: NONE USED): 6/18 (33%), 2/16 (13%), 61%, not significant
- tumour outcome (control, treated, inhibition, significance) (Carcinogen: METHYLAZOXYMETHANOL ACETATE, 592-62-1, Dose [Inhibitor]: 0, 100 PPM IN DIET FOR 4 WK BEGINNING 1 WK PRIOR TO CARCINOGEN TREATMENT (STUDY DURATION: 49 WK), Route [Inhibitor]: ORAL, Species: RAT, Strain/Sex: ACI/FEMALE, Target Tissue: Type of Lesion: COLON: CARCINOMA, Dose [Carcinogen]: 25 MG/KG BW 1/WK FOR 3 WK, Promoter: NONE USED): 11/18 (61%), 10/12 (83%), -36%, not significant
- tumour outcome (control, treated, inhibition, significance) (Carcinogen: METHYLAZOXYMETHANOL ACETATE, 592-62-1, Dose [Inhibitor]: 0, 100 PPM IN DIET FOR 4 WK BEGINNING 1 WK PRIOR TO CARCINOGEN TREATMENT (STUDY DURATION: 49 WK), Route [Inhibitor]: ORAL, Species: RAT, Strain/Sex: ACI/FEMALE, Target Tissue: Type of Lesion: SMALL INTESTINE: ADENOMA OR CARCINOMA, Dose [Carcinogen]: 25 MG/KG BW 1/WK FOR 3 WK, Promoter: NONE USED): 11/18 (61%), 8/12 (67%), -10%, not significant
- tumour outcome (control, treated, inhibition, significance) (Carcinogen: METHYLAZOXYMETHANOL ACETATE, 592-62-1, Dose [Inhibitor]: 0, 100 PPM IN DIET FOR 46 WK BEGINNING 1 WK POST CARCINOGEN TREATMENT (STUDY DURATION: 49 WK), Route [Inhibitor]: ORAL, Species: RAT, Strain/Sex: ACI/FEMALE, Target Tissue: Type of Lesion: COLON: ADENOMA OR CARCINOMA, Dose [Carcinogen]: 25 MG/KG BW 1/WK FOR 3 WK, Promoter: NONE USED): 15/18 (83%), 18/19 (95%), -14%, not significant
- tumour outcome (control, treated, inhibition, significance) (Carcinogen: METHYLAZOXYMETHANOL ACETATE, 592-62-1, Dose [Inhibitor]: 0, 100 PPM IN DIET FOR 46 WK BEGINNING 1 WK POST CARCINOGEN TREATMENT (STUDY DURATION: 49 WK), Route [Inhibitor]: ORAL, Species: RAT, Strain/Sex: ACI/FEMALE, Target Tissue: Type of Lesion: SMALL INTESTINE: ADENOMA OR CARCINOMA, Dose [Carcinogen]: 25 MG/KG BW 1/WK FOR 3 WK, Promoter: NONE USED): 11/18 (61%), 8/19 (42%), 31%, not significant
- tumour outcome (control, treated, inhibition, significance) (Carcinogen: METHYLAZOXYMETHANOL ACETATE, 592-62-1, Dose [Inhibitor]: 0, 400 PPM IN DIET FOR 4 WK BEGINNING 1 WK PRIOR TO CARCINOGEN TREATMENT (STUDY DURATION: 49 WK), Route [Inhibitor]: ORAL, Species: RAT, Strain/Sex: ACI/FEMALE, Target Tissue: Type of Lesion: COLON: ADENOMA OR CARCINOMA, Dose [Carcinogen]: 25 MG/KG BW 1/WK FOR 3 WK, Promoter: NONE USED): 15/18 (83%), 17/21 (81%), 2%, not significant
- tumour outcome (control, treated, inhibition, significance) (Carcinogen: METHYLAZOXYMETHANOL ACETATE, 592-62-1, Dose [Inhibitor]: 0, 400 PPM IN DIET FOR 4 WK BEGINNING 1 WK PRIOR TO CARCINOGEN TREATMENT (STUDY DURATION: 49 WK), Route [Inhibitor]: ORAL, Species: RAT, Strain/Sex: ACI/FEMALE, Target Tissue: Type of Lesion: SMALL INTESTINE: CARCINOMA, Dose [Carcinogen]: 25 MG/KG BW 1/WK FOR 3 WK, Promoter: NONE USED): 10/18 (56%), 1/21 (5%), 91%, not calculated
- tumour outcome (control, treated, inhibition, significance) (Carcinogen: METHYLAZOXYMETHANOL ACETATE, 592-62-1, Dose [Inhibitor]: 0, 400 PPM IN DIET FOR 46 WK BEGINNING 1 WK POST CARCINOGEN TREATMENT (STUDY DURATION: 49 WK), Route [Inhibitor]: ORAL, Species: RAT, Strain/Sex: ACI/FEMALE, Target Tissue: Type of Lesion: COLON: ADENOMA OR CARCINOMA, Dose [Carcinogen]: 25 MG/KG BW 1/WK FOR 3 WK, Promoter: NONE USED): 15/18 (83%), 13/18 (72%), 13%, not significant
- tumour outcome (control, treated, inhibition, significance) (Carcinogen: METHYLAZOXYMETHANOL ACETATE, 592-62-1, Dose [Inhibitor]: 0, 400 PPM IN DIET FOR 46 WK BEGINNING 1 WK POST CARCINOGEN TREATMENT (STUDY DURATION: 49 WK), Route [Inhibitor]: ORAL, Species: RAT, Strain/Sex: ACI/FEMALE, Target Tissue: Type of Lesion: SMALL INTESTINE: ADENOMA OR CARCINOMA, Dose [Carcinogen]: 25 MG/KG BW 1/WK FOR 3 WK, Promoter: NONE USED): 11/18 (61%), 3/18 (17%), 72%, p<0.01

Structure (SMILES): C#C[C@]1(O)CC[C@H]2[C@@H]3CCC4=Cc5oncc5C[C@]4(C)[C@H]3CC[C@@]21C
- tumour outcome (control, treated, inhibition, significance) (Carcinogen: 7,12-DIMETHYLBENZ[A]ANTHRACENE, 57-97-6, Dose [Inhibitor]: 0, 2 MG 6 D/WK FOR 169 D BEGINNING 5 D POST CARCINOGEN DOSE (STUDY DURATION: 174 D), Route [Inhibitor]: SUBCUTANEOUS, Species: RAT, Strain/Sex: SPRAGUE-DAWLEY/FEMALE, Target Tissue: Type of Lesion: MAMMARY GLAND: MALIGNANT TUMORS, Dose [Carcinogen]: 20 MG IN 1 ML SESAME OIL ONCE, Promoter: NONE USED): 91%, 67%, 26%, p<0.05

Structure (SMILES): CCOC(=O)c1ccc(/C=C(\C)c2ccc3c(c2)C(C)(C)CCC3(C)C)cc1
- tumour outcome (control, treated, inhibition, significance) (Carcinogen: 7,12-DIMETHYLBENZ[A]ANTHRACENE, 57-97-6, Dose [Inhibitor]: 0, 24 UG/KG IN ARACHIS OIL (5 ML/KG) REDUCED TO 16 UG/KG AFTER 4 WK 5/WK BEGINNING 1 D POST CARCINOGEN DOSE (STUDY DURAT, Route [Inhibitor]: GAVAGE, Species: RAT, Strain/Sex: SPRAGUE-DAWLEY/FEMALE, Target Tissue: Type of Lesion: MAMMARY GLAND: TUMOR, Dose [Carcinogen]: 15 MG IN ARACHIS OIL ONCE AT 50 D OF AGE, Promoter: NONE USED): 96%, 72%, 25%, not calculated

Structure (SMILES): c1ccc2c(c1)Oc1ccccc1O2
- tumour outcome (control, treated, inhibition, significance) (Carcinogen: 7,12-DIMETHYLBENZ[A]ANTHRACENE, 57-97-6, Dose [Inhibitor]: 0, 17 NMOL 2/WK APPLIED 1 HR PRIOR TO EACH PROMOTER DOSE FOR 20 WK (STUDY DURATION: 21 WK), Route [Inhibitor]: DERMAL, Species: MOUSE, Target Tissue: Type of Lesion: SKIN: TUMOR, Dose [Carcinogen]: 390 NMOL ONCE, Promoter: 12-O-TETRADECANOYLPHORBOL-13-ACETATE, 16561-29-8): 100%, 73%, 27%, not calculated
